The structures appear in SMILES notation.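 48-hour exposure; five concentrations; linearly interpolated endpoints. GI50: concentration for 50% inhibition of growth. TGI marks complete inhibition of growth.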

The values that follow come from PubChem BioAssay (NCI).

Among the test systems are M14 melanoma; NCI-H460 lung; UACC-257 melanoma; CCRF-CEM leukemia; OVCAR-5 ovarian; NCI-H23 lung; CAKI-1 renal; HT29 colon; SK-OV-3 ovarian; A549 NSCLC.
Common to all, as to assay: NCI-60 cell line screen, 48 h

`c1cc(OCCN2CCCCCC2)ccc1CNc1ccc2nc(CCC3CCCCC3)[nH]c2c1`: the GI50 in the experiment on M14 melanoma is 1.72 µM; in the experiment on NCI-H460 lung it was 2.06 µM; in the experiment on UACC-257 melanoma, 1.94 µM; in the experiment on CCRF-CEM leukemia, 2.08 µM; in the experiment with OVCAR-5 ovarian, 2.48 µM; in the experiment on NCI-H23 lung, 2.36 µM. Further, the GI50 is 1.98 µM in the experiment with CAKI-1 renal, 1.3 µM with HT29 colon, 2.18 µM in the experiment on SK-OV-3 ovarian and 3.05 µM in the experiment on A549 NSCLC. Besides, the TGI in the experiment with M14 melanoma amounted to 3.32 µM; with NCI-H460 lung, 4.64 µM; with UACC-257 melanoma, 4.12 µM; in the experiment on CCRF-CEM leukemia, 10.1 µM; with OVCAR-5 ovarian, 7.33 µM; with NCI-H23 lung, 6.62 µM. Moreover, the TGI in the experiment with CAKI-1 renal stood at 4.05 µM; in the experiment with HT29 colon it was 3.49 µM; in the experiment with SK-OV-3 ovarian, 4.84 µM; in the experiment with A549 NSCLC it was 11 µM.
As for `O=C1/C(=C\C(Cl)=C/c2ccc([N+](=O)[O-])cc2)SC(=S)N1CCc1ccc(O)cc1`, the GI50 is 0.494 µM in the experiment with M14 melanoma; 1.82 µM in the experiment with NCI-H460 lung; 1.65 µM in the experiment on UACC-257 melanoma; 0.31 µM in the experiment with CCRF-CEM leukemia; 0.447 µM in the experiment on OVCAR-5 ovarian; 0.632 µM in the experiment on NCI-H23 lung. For the same compound, the GI50 in the experiment with CAKI-1 renal is 0.548 µM; in the experiment with HT29 colon, 0.429 µM; in the experiment with SK-OV-3 ovarian, 2.59 µM; in the experiment with A549 NSCLC, 1.6 µM. For the same compound, the TGI with M14 melanoma was 1.84 µM; in the experiment on NCI-H460 lung, 4.05 µM; with UACC-257 melanoma, 4.28 µM; with CCRF-CEM leukemia, 5.67 µM; in the experiment on OVCAR-5 ovarian, 1.53 µM; in the experiment on NCI-H23 lung, 2.17 µM. Further, the TGI was 1.53 µM in the experiment on CAKI-1 renal, 2.28 µM with HT29 colon, 6.42 µM in the experiment with SK-OV-3 ovarian and 8.79 µM in the experiment with A549 NSCLC.
Turning to `O=C(Nc1nccs1)c1cc2c(cc1Cl)Sc1nccn1S2(=O)=O`, the GI50 is 17.8 µM in the experiment with M14 melanoma; 13.9 µM in the experiment with UACC-257 melanoma; 5.05 µM in the experiment with CCRF-CEM leukemia; 21.7 µM with OVCAR-5 ovarian; 16.9 µM in the experiment on NCI-H23 lung; 8.5 µM with CAKI-1 renal. For the same compound, the GI50 with HT29 colon was 19.8 µM; in the experiment on SK-OV-3 ovarian it was 24.5 µM; in the experiment with A549 NSCLC it was 23.8 µM. In addition, the TGI in the experiment on M14 melanoma was found to be 34.6 µM; in the experiment on NCI-H460 lung it was 29.5 µM; with UACC-257 melanoma, 26.9 µM; in the experiment on CCRF-CEM leukemia, 24.8 µM; in the experiment with OVCAR-5 ovarian, 46 µM; in the experiment with NCI-H23 lung, 33.7 µM. The TGI in the experiment on CAKI-1 renal stood at 36.9 µM; with HT29 colon, 46.7 µM; with SK-OV-3 ovarian, 63.9 µM; with A549 NSCLC it was 63.4 µM.
In the case of `CC(=O)OCc1cc(OC(C)=O)cnc1COC(C)=O`, the TGI with M14 melanoma, with NCI-H460 lung, with UACC-257 melanoma, with CCRF-CEM leukemia, with OVCAR-5 ovarian and with NCI-H23 lung was above 100 µM in each case. Also, the TGI in the experiment on CAKI-1 renal, in the experiment on HT29 colon, in the experiment with SK-OV-3 ovarian and in the experiment on A549 NSCLC was above 100 µM throughout.
Regarding `CN(C)CCCN(c1nc(C(Cl)(Cl)Cl)ns1)c1nc(C(Cl)(Cl)Cl)ns1`, the GI50 is 1.89 µM in the experiment on M14 melanoma; 1.81 µM in the experiment with NCI-H460 lung; 1.8 µM with UACC-257 melanoma; 2.45 µM with CCRF-CEM leukemia; 1.82 µM with OVCAR-5 ovarian; 2.04 µM with NCI-H23 lung. For the same compound, the GI50 in the experiment with CAKI-1 renal was 4.82 µM; in the experiment with HT29 colon, 1.69 µM; in the experiment on SK-OV-3 ovarian, 1.88 µM; in the experiment on A549 NSCLC it was 1.63 µM. The TGI in the experiment on M14 melanoma came to 3.63 µM; with NCI-H460 lung, 3.56 µM; in the experiment on UACC-257 melanoma, 3.65 µM; in the experiment on CCRF-CEM leukemia, 8.03 µM; in the experiment with OVCAR-5 ovarian, 3.8 µM; with NCI-H23 lung, 5.55 µM. Besides, the TGI in the experiment on CAKI-1 renal turned out to be 18.5 µM; in the experiment with HT29 colon, 3.37 µM; with SK-OV-3 ovarian it was 4 µM; in the experiment with A549 NSCLC, 3.78 µM.
With `Cn1ncc2c(/N=C/c3cccs3)[nH]c(=S)nc21`, the GI50 was 45.7 µM in the experiment with M14 melanoma; 31 µM in the experiment on NCI-H460 lung; above 65.4 µM in the experiment with UACC-257 melanoma; 55.7 µM in the experiment with CCRF-CEM leukemia; 54 µM with OVCAR-5 ovarian; 33.7 µM in the experiment on NCI-H23 lung. Moreover, the GI50 with CAKI-1 renal is 33.4 µM; with HT29 colon it was 52.3 µM; with SK-OV-3 ovarian, 80 µM; with A549 NSCLC, 47.4 µM. Also, the TGI in the experiment with M14 melanoma is above 100 µM; in the experiment with NCI-H460 lung, above 100 µM; with UACC-257 melanoma it was above 100 µM; with CCRF-CEM leukemia, above 100 µM; in the experiment with OVCAR-5 ovarian, above 100 µM; in the experiment on NCI-H23 lung, above 76.1 µM. The TGI in the experiment with CAKI-1 renal, with HT29 colon, in the experiment on SK-OV-3 ovarian and in the experiment on A549 NSCLC was above 100 µM in each case.
`Cc1c2c(nn1C(=O)c1nn(-c3ccc(Cl)cc3)cc1O)-c1ccccc1CC2`: the GI50 in the experiment with M14 melanoma is 0.0842 µM; with NCI-H460 lung, 0.0237 µM; in the experiment on UACC-257 melanoma it was 0.218 µM; with CCRF-CEM leukemia it was 0.0477 µM; in the experiment with OVCAR-5 ovarian it was 0.0723 µM; in the experiment on NCI-H23 lung it was 0.0411 µM. The GI50 is 0.0971 µM in the experiment with CAKI-1 renal, 0.226 µM in the experiment on HT29 colon, 0.202 µM in the experiment with SK-OV-3 ovarian and 0.0343 µM with A549 NSCLC. Moreover, the TGI is above 45.5 µM in the experiment with M14 melanoma; 0.0613 µM with NCI-H460 lung; 9.73 µM in the experiment on UACC-257 melanoma; above 49.1 µM in the experiment on CCRF-CEM leukemia; above 100 µM with OVCAR-5 ovarian; above 100 µM in the experiment with NCI-H23 lung. Also, the TGI was 6.85 µM in the experiment with CAKI-1 renal, above 50.6 µM in the experiment on HT29 colon, above 100 µM in the experiment on SK-OV-3 ovarian and above 100 µM in the experiment with A549 NSCLC.
Regarding `N/C(=N\N=C\c1cccs1)NO`, the TGI in the experiment with M14 melanoma, in the experiment with NCI-H460 lung, in the experiment with UACC-257 melanoma, in the experiment on CCRF-CEM leukemia, in the experiment on OVCAR-5 ovarian and in the experiment with NCI-H23 lung was above 100 µM each time. Further, the TGI in the experiment on CAKI-1 renal, in the experiment on HT29 colon, in the experiment with SK-OV-3 ovarian and with A549 NSCLC was above 100 µM in each case.
